From ChEMBL document CHEMBL4393689, “Discovery of fluorescent coumarin-benzo[b]thiophene 1, 1-dioxide conjugates as mitochondria-targeting antitumor STAT3 inhibitors” (Eur J Med Chem, 2019)
Active and inactive are the calls of the source. No cut-off for these calls is given here.

Tests used:
[1] = test system: HCT-116; assay: Antiproliferative activity against human HCT116 cells assessed as reduction in cell viability incubated for 48 hrs by MTT assay; format: functional, cell-based; conditions: HCT-116, 48 h
[2] = test system: HepG2; assay: Antiproliferative activity against human HepG2 cells assessed as reduction in cell viability incubated for 48 hrs by MTT assay; format: functional, cell-based; conditions: HepG2, 48 h
[3] = test system: MCF7; assay: Antiproliferative activity against human MCF7 cells assessed as reduction in cell viability incubated for 48 hrs by MTT assay; format: functional, cell-based; conditions: MCF7, 48 h
[4] = test system: MDA-MB-231; assay: Antiproliferative activity against human MDA-MB-231 cells assessed as reduction in cell viability incubated for 48 hrs by MTT assay; format: functional, cell-based; conditions: MDA-MB-231, 48 h
[5] = test system: MDA-MB-231; assay: Induction of apoptosis in human MDA-MB-231 cells assessed as increase in cleaved caspase-9 levels at 4 uM incubated for 24 hrs by Western blot analysis; format: functional, cell-based
[6] = biological target: Proto-oncogene tyrosine-protein kinase Src (Homo sapiens) (UniProt P12931); assay: Inhibition of Src in human MDA-MB-231 cells assessed as reduction in Src phosphorylation at 4 uM incubated for 24 hrs by Western blot analysis; format: cell-based
Proto-oncogene tyrosine-protein kinase Src (Homo sapiens), sequence (P12931 2-536 limits assumed): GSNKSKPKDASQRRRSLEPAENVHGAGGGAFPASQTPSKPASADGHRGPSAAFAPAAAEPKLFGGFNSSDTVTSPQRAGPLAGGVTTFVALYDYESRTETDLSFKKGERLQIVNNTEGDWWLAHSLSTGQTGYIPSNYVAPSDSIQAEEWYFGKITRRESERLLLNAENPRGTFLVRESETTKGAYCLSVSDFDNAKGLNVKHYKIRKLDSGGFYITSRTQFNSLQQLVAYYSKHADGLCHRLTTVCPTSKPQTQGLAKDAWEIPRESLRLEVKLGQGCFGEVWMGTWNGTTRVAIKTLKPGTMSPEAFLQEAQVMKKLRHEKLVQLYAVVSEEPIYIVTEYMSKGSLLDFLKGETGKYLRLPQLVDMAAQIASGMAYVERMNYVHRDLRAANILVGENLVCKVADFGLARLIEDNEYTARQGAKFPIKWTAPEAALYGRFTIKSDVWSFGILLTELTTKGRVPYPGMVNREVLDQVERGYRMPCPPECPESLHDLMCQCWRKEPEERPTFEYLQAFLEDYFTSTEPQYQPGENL

[7] = Selectivity index, ratio of IC50 for human L02 cells to IC50 for human HepG2 cells; format: toxicity; conditions: L02 cells versus HepG2 cells, read-out: Ratio IC50
[8] = Selectivity index, ratio of IC50 for human MCF10A cells to IC50 for human MDA-MB-231 cells; format: toxicity; conditions: MCF10A cells versus MDA-MB-231 cells, read-out: Ratio IC50
[9] = test system: L02; assay: Cytotoxicity against human LO2 cells assessed as reduction in cell viability incubated for 48 hrs by MTT assay; format: cell-based; conditions: L02, 48 h
[10] = biological target: Tyrosine-protein kinase JAK2 (Homo sapiens) (UniProt O60674); assay: Inhibition of JAK2 in human MDA-MB-231 cells assessed as reduction in JAK2 phosphorylation at 4 uM incubated for 24 hrs by Western blot analysis; format: cell-based
Tyrosine-protein kinase JAK2 (Homo sapiens), sequence (O60674 whole entry): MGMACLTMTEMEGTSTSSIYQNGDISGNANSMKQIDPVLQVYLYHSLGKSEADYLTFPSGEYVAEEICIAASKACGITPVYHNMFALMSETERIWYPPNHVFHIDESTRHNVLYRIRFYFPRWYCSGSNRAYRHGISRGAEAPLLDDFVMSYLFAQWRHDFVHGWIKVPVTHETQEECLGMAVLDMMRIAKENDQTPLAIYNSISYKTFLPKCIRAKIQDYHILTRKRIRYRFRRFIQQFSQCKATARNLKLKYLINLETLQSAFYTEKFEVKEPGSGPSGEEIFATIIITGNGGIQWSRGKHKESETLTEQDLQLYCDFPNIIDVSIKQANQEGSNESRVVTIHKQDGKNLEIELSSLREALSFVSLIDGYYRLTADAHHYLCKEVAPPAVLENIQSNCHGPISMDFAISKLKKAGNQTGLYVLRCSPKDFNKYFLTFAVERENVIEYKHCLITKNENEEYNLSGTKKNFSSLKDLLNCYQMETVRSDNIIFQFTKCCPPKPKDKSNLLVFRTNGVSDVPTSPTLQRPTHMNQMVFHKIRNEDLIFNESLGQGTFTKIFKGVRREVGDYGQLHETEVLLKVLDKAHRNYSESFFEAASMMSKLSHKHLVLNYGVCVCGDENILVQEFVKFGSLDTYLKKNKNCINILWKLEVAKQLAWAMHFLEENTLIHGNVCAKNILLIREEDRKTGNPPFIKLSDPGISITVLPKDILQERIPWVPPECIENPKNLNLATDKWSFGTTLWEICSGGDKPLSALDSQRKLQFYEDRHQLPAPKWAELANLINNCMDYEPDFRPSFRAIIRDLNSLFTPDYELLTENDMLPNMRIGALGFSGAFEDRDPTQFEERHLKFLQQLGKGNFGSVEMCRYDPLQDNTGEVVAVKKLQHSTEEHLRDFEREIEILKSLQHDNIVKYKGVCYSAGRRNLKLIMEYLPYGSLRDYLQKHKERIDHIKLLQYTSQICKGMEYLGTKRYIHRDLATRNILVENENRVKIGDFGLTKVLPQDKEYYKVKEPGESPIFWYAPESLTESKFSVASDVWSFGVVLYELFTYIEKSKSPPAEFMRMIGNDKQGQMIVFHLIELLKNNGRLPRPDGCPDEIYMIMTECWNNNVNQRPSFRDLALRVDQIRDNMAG

[11] = biological target: Mitogen-activated protein kinase; ERK1/ERK2 (Homo sapiens) (UniProt P27361+P28482); assay: Inhibition of ERK 1/2 in human MDA-MB-231 cells assessed as reduction in ERK 1/2 phosphorylation at 4 uM incubated for 24 hrs by Western blot analysis; format: cell-based
Mitogen-activated protein kinase; ERK1/ERK2 (Homo sapiens), sequence (P27361 whole entry, looked up): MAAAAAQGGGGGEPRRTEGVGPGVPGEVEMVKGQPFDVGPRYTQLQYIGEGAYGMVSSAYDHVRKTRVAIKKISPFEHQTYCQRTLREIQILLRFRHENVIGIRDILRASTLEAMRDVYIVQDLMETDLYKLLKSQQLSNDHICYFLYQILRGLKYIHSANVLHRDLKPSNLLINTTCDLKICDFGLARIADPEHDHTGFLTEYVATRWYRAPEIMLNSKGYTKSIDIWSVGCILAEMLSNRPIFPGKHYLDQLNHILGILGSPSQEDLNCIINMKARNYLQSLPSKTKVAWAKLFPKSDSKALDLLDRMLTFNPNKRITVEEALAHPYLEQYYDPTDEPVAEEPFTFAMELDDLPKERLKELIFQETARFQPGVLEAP
Mitogen-activated protein kinase; ERK1/ERK2 (Homo sapiens), sequence (P28482 whole entry, looked up): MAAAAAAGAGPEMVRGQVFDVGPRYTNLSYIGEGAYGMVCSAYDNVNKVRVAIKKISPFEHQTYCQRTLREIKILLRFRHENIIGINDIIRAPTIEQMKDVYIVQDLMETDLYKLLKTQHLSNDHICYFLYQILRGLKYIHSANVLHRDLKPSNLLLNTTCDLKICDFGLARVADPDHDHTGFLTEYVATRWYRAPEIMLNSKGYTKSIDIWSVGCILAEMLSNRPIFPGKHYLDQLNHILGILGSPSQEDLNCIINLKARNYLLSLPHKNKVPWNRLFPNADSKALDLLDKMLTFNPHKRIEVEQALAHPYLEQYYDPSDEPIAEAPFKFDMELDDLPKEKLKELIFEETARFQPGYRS

[12] = biological target: Signal transducer and activator of transcription 3 (Homo sapiens) (UniProt P40763); assay: Inhibition of STAT3 in human MDA-MB-231 cells assessed as decrease in STAT3-DNA binding at 4 uM incubated for 24 hrs by electrophoretic mobility shift assay; format: cell-based
Signal transducer and activator of transcription 3 (Homo sapiens), sequence (P40763 whole entry): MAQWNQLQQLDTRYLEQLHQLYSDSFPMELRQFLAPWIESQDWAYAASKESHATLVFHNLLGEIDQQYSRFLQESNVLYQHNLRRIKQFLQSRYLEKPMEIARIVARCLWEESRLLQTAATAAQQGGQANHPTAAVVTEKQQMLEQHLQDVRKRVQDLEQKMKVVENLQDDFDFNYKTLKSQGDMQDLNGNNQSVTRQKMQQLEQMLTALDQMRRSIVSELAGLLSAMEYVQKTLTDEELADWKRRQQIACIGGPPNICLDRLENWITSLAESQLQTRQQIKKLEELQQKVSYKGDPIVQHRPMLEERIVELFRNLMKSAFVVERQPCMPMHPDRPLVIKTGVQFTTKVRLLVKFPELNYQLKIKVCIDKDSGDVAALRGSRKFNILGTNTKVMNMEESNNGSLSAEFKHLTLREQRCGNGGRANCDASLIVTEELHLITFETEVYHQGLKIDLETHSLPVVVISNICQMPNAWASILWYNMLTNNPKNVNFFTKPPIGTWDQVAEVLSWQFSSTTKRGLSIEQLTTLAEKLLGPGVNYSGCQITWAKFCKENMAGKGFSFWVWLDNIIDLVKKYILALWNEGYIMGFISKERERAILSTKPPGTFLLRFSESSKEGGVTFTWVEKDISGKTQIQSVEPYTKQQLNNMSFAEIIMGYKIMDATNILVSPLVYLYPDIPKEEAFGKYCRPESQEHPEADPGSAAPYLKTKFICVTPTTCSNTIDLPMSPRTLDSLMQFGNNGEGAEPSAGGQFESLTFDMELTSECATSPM

[13] = test system: MDA-MB-231; assay: Induction of apoptosis in human MDA-MB-231 cells assessed as increase in cleaved PARP levels at 4 uM incubated for 24 hrs by Western blot analysis; format: functional, cell-based
[14] = test system: MCF-10A; assay: Cytotoxicity against human MCF10A cells assessed as reduction in cell viability incubated for 48 hrs by MTT assay; format: cell-based
[15] = biological target: Signal transducer and activator of transcription 3 (Homo sapiens) (UniProt P40763); assay: Inhibition of STAT3 in human MDA-MB-231 cells assessed as decrease in STAT3 phosphorylation at Tyr705 residue at 4 uM incubated for 24 hrs by Western blot analysis; format: cell-based
[16] = biological target: T1, Signal transducer and activator of transcription 1-alpha/beta (Homo sapiens) (UniProt P42224); assay: Inhibition of STAT1 in human MDA-MB-231 cells assessed as decrease in STAT1 phosphorylation at Y701 residue at 4 uM incubated for 24 hrs by Western blot analysis; format: cell-based
T1 sequence (whole entry): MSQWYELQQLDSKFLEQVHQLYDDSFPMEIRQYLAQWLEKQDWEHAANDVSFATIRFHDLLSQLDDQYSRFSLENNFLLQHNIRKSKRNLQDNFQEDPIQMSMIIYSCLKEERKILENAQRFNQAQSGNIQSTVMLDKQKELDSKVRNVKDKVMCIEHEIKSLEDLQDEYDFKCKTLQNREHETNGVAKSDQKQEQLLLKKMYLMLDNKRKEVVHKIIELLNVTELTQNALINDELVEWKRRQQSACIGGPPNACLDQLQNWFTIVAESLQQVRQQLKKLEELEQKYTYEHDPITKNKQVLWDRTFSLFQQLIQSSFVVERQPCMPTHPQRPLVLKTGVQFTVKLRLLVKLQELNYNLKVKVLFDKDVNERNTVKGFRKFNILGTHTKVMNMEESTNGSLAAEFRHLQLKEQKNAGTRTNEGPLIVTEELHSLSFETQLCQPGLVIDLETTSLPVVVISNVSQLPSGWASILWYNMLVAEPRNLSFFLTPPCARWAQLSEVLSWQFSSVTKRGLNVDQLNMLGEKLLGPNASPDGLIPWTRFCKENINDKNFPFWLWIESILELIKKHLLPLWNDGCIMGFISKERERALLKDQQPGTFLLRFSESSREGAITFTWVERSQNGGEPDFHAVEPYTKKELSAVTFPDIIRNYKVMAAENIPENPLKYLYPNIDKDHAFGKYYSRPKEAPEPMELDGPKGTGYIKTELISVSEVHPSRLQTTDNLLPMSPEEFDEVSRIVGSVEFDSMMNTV

[17] = test system: MDA-MB-231; assay: Induction of apoptosis in human MDA-MB-231 cells assessed as increase in cleaved caspase-3 levels at 4 uM incubated for 24 hrs by Western blot analysis; format: functional, cell-based

SMILES | IC50 [1] [µM] | IC50 [2] [µM] | IC50 [3] [µM] | IC50 [4] [µM] | also measured
CCN(CC)c1ccc2cc(C(=O)N3CCN(C(=O)C4=Cc5ccc(Cl)cc5S4(=O)=O)CC3)c(=O)oc2c1 | 4.44 | 5.29 | 5.23 | 2.03 | –
O=S1(=O)C=Cc2ccccc21 | 9.33 | 22.9 | 15.2 | 27.7 | –
CCN(CC)c1ccc2cc(C(=O)N3CCN(C(=O)C4=Cc5c(F)cccc5S4(=O)=O)CC3)c(=O)oc2c1 | 2.33 | 3.3 | 4.04 | 2.13 | –
CCN(CC)c1ccc2cc(C(=O)N3CCN(C(=O)C4=Cc5ccc(Br)cc5S4(=O)=O)CC3)c(=O)oc2c1 | 2.79 | 5.52 | 5.04 | 2.74 | –
CCN(CC)c1ccc2cc(C(=O)N3CCN(C(=O)C4=Cc5cccc(Br)c5S4(=O)=O)CC3)c(=O)oc2c1 | 2.97 | 4.74 | 3.2 | 2.32 | –
CCN(CC)c1ccc2cc(C(=O)N3CCN(C(=O)C4=Cc5c(Cl)cccc5S4(=O)=O)CC3)c(=O)oc2c1 | 1.57 | 4.49 | 4.44 | 2.24 | –
CCN(CC)c1ccc2cc(C(=O)N3CCN(C(=O)C4=Cc5c(OC)cccc5S4(=O)=O)CC3)c(=O)oc2c1 | 2.02 | 2.94 | 3.95 | 1.84 | –
CCN(CC)c1ccc2cc(C(=O)N3CCN(C(=O)C4=Cc5cc(Cl)ccc5S4(=O)=O)CC3)c(=O)oc2c1 | 4.12 | 5.55 | 4.39 | 2.35 | –
CCN(CC)c1ccc2cc(C(=O)N3CCN(C(=O)C4=Cc5cc(Br)ccc5S4(=O)=O)CC3)c(=O)oc2c1 | 3.83 | 5.15 | 3.9 | 2.23 | –
CCN(CC)c1ccc2cc(C(=O)N3CCN(C(=O)C4=Cc5ccc([N+](=O)[O-])cc5S4(=O)=O)CC3)c(=O)oc2c1 | 4.95 | 7.09 | 6.76 | 5.22 | –
CCN(CC)c1ccc2cc(C(=O)N3CCN(C(=O)C4=Cc5ccccc5S4(=O)=O)CC3)c(=O)oc2c1 | 3.78 | 4.31 | 3 | 2.32 | –
CCN(CC)c1ccc2cc(C(=O)N3CCN(C(=O)C4=Cc5c([N+](=O)[O-])cccc5S4(=O)=O)CC3)c(=O)oc2c1 | 3.24 | 4.91 | 4.41 | 3.46 | –
CCN(CC)c1ccc2cc(C(=O)N3CCN(C(=O)C4=Cc5ccc(OC)cc5S4(=O)=O)CC3)c(=O)oc2c1 | 2.3 | 4.21 | 2.28 | 1.92 | –
O=[N+]([O-])c1ccc2c(c1)S(=O)(=O)C=C2 | 2.16 | 3.52 | 3.71 | 1.81 | Activity [5]: Active; inhibition [6]: inactive; selectivity ratio [7]: 1.5; selectivity ratio [8]: 3.4; IC50 [9]: 5.2 µM; inhibition [10]: inactive; inhibition [11]: inactive; inhibition [12]: Active; Activity [13]: Active; IC50 [14]: 6.11 µM; inhibition [15]: Active; inhibition [16]: inactive; Activity [17]: Active
CCN(CC)c1ccc2cc(C(=O)N3CCN(C(=O)C4=Cc5ccc(F)cc5S4(=O)=O)CC3)c(=O)oc2c1 | 4.26 | 4.9 | 6.35 | 3.2 | –
CCN(CC)c1ccc2cc(C(=O)N3CCN(C(=O)C4=Cc5cc([N+](=O)[O-])ccc5S4(=O)=O)CC3)c(=O)oc2c1 | 6.74 | 7.47 | 6.33 | 4.92 | –
